Test results from patent US12516082B2, “Metal-carbohydrate complex” (ARCZONE K.K., priority 2020, dated 2026).

Experiments:
Assay type in all cases: cell-based, mouse
MIN6 [1] = test: Optical microscope observation of cell conditions, MIN6 at 5 DIV, with or without PHT
Description: (§1) A mouse pancreatic β-cell tumorigenic (insulinoma) cell line MIN6 (Miyazaki J. et al., Endocrinology 127:126-132, 1990) was used to perform the following experiment. Here, all experiments which include an experiment where the above-described compound B (hereinafter called LGG) is administered and an experiment where the above-described compound A (hereinafter called DGG) is administered and in which about 1,000 MIN6 cells were placed in 96 wells were carried out by taking care to avoid external disturbances as much as possible.
Here, a further experiment was carried out to verify whether the LGG-induced cell death clearly shown in FIG. 2 was indeed caused by the intracellular uptake of LGG. Specifically, whether the cell death is inhibited was examined by administering LGG in the presence of phloretin (hereinafter called PHT).
PHT functions as an inhibitor on various membrane transport proteins such as water channel proteins or glucose transporter proteins (Ono K. et al., Cancers 12:850, 2020). […] That is, it is estimated that, when an L-glucose derivative is applied to MIN6 cells in the presence of PHT, incorporation of LGG into “cells into which the L-glucose derivative can be incorporate” which are partially present in a heterogeneous cell population is inhibited by the effect of inhibiting a non-transporter type transport mechanism by PHT. […]

MIN6 [2] = test: Calcein fluorescence intensity (activity of living cells), MIN6 at 5 DIV, with or without PHT; settings: FIG. 5
Description: as §1
Furthermore, the effect of LGG on cells was quantitatively analyzed in the presence or absence of PHT. Specifically, similarly to the cases of FIG. 3 described above, the fluorescence intensity of calcein, which is a fluorescent marker representing activities of living cells, was evaluated for the case (A) where LGG was not administered to MIN6 (at 5 DIV) (control experiment), the case (B) where 100 μm LGG was administered thereto for 10 minutes (LGG), and the case (C) where 100 μm LGG was administered thereto for 10 minutes after 150 μm PHT was administered in advance. In FIG. 5, the error bars indicate standard errors SE, and the numerical values in parentheses indicate the number of ROIs analyzed. […]

MIN6 [3] = test: Proportion of dead cells by propidium iodide, MIN6 at 4 DIV in culture
Description: as §1
MIN6 cells derived from mouse pancreas are a heterogeneous cell population (Yamato, E. et al., PLOS One 8: e61211, 2013). Up to about 4 to 5 DIV after the start of culture, normal cells, that is, insulin-producing β-cells of pancreatic islets of Langerhans accounted for the majority. […]
Specifically, LGG and DGG were administered to MIN6 at 0 to 1,000 μm at 4 DIV in culture, and after the elapse of 90 minutes, the proportion of the number of dead cells evaluated using a dead cell marker propidium iodide (PI) was measured as a function of their concentrations. […] However, the vertical axis is a value (%) normalized by the fluorescence intensity of the total number of cells assuming that the number of dead cells at a concentration of 1,000 μm is the total number of cells in each well. […]

MIN6 [4] = test: Proportion of dead cells, MIN6 at long DIV (18 to 19 DIV) in culture; settings: MIN6 at 19 DIV for LGG, 18 DIV for DGG; administered for 10 minutes; FIG. 6
Description: as §1
Specifically, LGG and DGG were administered to MIN6 at 0 to 1,000 μm at 4 DIV in culture, and after the elapse of 90 minutes, the proportion of the number of dead cells evaluated using a dead cell marker propidium iodide (PI) was measured as a function of their concentrations. […] However, the vertical axis is a value (%) normalized by the fluorescence intensity of the total number of cells assuming that the number of dead cells at a concentration of 1,000 μm is the total number of cells in each well. The broken line is an eye guide.
Furthermore, the same experiment as that of FIG. 2 was carried out for MIN6 at long DIV in culture. However, in either case, observations were carried out after DGG or LGG was administered for 10 minutes.

CC[P+](CC)(CC)[Au-][S]C1OC(CO)C(O)C(O)C1O [LGG, (1-thio-β-L-glucopyranoside) (S-triethylphosphine) gold (I)]
cell conditions under optical microscope (MIN6 [1]; 100 μm LGG for 10 minutes after 150 μm PHT in advance, FIG. 3C, 4f-4i): cells indicating deterioration of the cell conditions are hardly recognized
cell conditions under optical microscope (MIN6 [1]; 100 μm LGG for 10 minutes, no PHT, FIG. 3B, 4e): a part of cytoplasm in some cells protrudes outside the cells
fluorescence intensity of calcein (cell activity): decrease due to LGG in presence of PHT (MIN6 [2]; 100 μm LGG for 10 minutes after 150 μm PHT in advance): significantly inhibited by PHT
fluorescence intensity of calcein (cell activity) versus control (MIN6 [2]; 100 μm LGG for 10 minutes, no PHT): significantly reduced activities of MIN6 cells
safety against normal cells relative to DGG (MIN6 [3]; MIN6 at 4 DIV (mostly normal β-cells), from 50% effective doses): approximately 10 times
concentration above which cell death evaluated using PI becomes detectable (MIN6 [3]; MIN6 at 4 DIV, 90 minutes after administration, interpolation of FIG. 2): 10 μm
concentration dependence of the proportion of the number of dead cells (MIN6 [4]): almost matches the DGG concentration dependence
